In article PMC10674987, “Sweet Cherry Extract as Permeation Enhancer of Tyrosine Kinase Inhibitors: A Promising Prospective for Future Oral Anticancer Therapies” (Pharmaceuticals, 2023):
Where two headings read alike, the source gives them in different places.

Legend:
[1] = tested on: Caco-2 cells; test: Cell viability assay (MTT) on Caco-2 cells; type: cell-based, human; conditions: 2 h
Protocol: (§1) Cells were sub-cultured using a 1× trypsin/EDTA solution and then passed every 3–4 days at appropriate ratios (typically 1:3, 1:6, 1:12). […] After 2 h of treatment, solutions were aspirated from the wells, and the cells were washed with pre-warmed PBS. […] Furthermore, it was mandatory to identify the most suitable drug concentration that would avoid cytotoxic effects on Caco-2 cells (a condition that may bias the permeability study) and that would allow the optimal chromatographic response when analyzing the samples obtained. Therefore, cells were exposed to increasing concentrations of drugs (1–10–100 µM) for 2 h. […] In order to fully reproduce the conditions of the permeability studies and assess the possible induction of irreversible cytotoxic effects by SCE or drugs, cell viability was also checked after a further 24 h of incubation in free medium (2 h + 24 h). Cell viability was assessed as above described.

[2] = Cell viability assay (MTT) on Caco-2 cells; type: cell-based, human; conditions: human, Caco-2 cells, 2 h + 24 h fresh medium
Protocol: as §1

[3] = set-up: method as in earlier work; conditions: in humans; EMA reports; cited from earlier work
[4] = tested on: Caco-2 monolayer; test: Bidirectional permeability in Caco-2 cells in absence and presence of SCE; type: in vitro ADME, human; conditions: +SCE 1 mg/mL vs Free
Protocol: (§2) Caco-2 cells were seeded at a density of 2 × 10^4 on Transwell supports (0.4 µm pore polycarbonate membrane, 6.5 mm) and incubated overnight in a controlled atmosphere of 37 °C and 5% of CO2. The following day, the medium was changed to remove floating cells and fresh pre-warmed DMEM 20% was added (300 µL in the apical compartment and 1200 µL in the basal one). Cells were cultured for approximately 18–21 days in order to ensure that the cellular monolayers differentiated and many transport proteins and brush border hydrolases were expressed. Media were changed every 2–3 days.
(§3) For permeability studies, stock solutions of compounds were prepared by solubilizing 1.0 mg of accurately weighed powder with dimethyl sulfoxide (DMSO) and conserved at −20 °C. Immediately prior to the experiments, working solutions (WS) were prepared by diluting the stock solutions with pre-warmed HBSS to the final concentration of 10 µM. The final concentration of DMSO used never exceeded 0.1% v/v. The assays were performed in both the absorptive (from apical-to-basolateral compartment (A-B)) and the secretory direction (from basolateral-to-apical compartment (B-A)), both in the absence (Free) and presence of sweet cherry extract (+SCE [1 mg/mL]) diluted in HBSS. The final volumes used for the experiment were 300 µL in the apical compartment and 1200 µL in the basolateral one. Plates were incubated at 37 °C and maintained under gentle shaking (500 rpm) to reduce the effect of the unstirred water layer. At selected time points (T0–0.25–0.5–1–2 h-TEND for the A-B studies; T0–2 h–TEND for the B-A studies), samples (200 µL) were collected from the receiving compartments (from the basolateral compartment for the A-B assay; from the apical one for the B-A study) and replaced with the same volume of HBSS. The HPLC-UV/MS method was developed to quantify the amount of drug transferred across the cellular monolayer, and permeability (Papp, 10^−6 cm/s) and efflux ratio (ER) were calculated according to the following equations:Papp = (dQ/dt) × 1/(A × C0)(5) where dQ/dt is the steady-state flux (µmol s^−1), A is the area of the filter (cm^2), and C0 is the initial concentration in the donor compartment (µM). ER = (Papp B-A)/(Papp A-B)(6)
(§4) Chromatographic analyses were carried out using an Agilent 1260 Infinity HPLC-DAD system connected to an Agilent MSD 6130 system (Agilent Technologies, Palo Alto, CA, USA). At room temperature, a Kinetex C18-100 Å column (150 mm 4.6 mm, purchased from Phenomenex, Torrance, CA, USA) with a 5 µm particle size and gradient elution with a binary solution (eluent A: H2O, eluent B: ACN, both acidified with 0.1% v/v formic acid) was for the chromatographic separation. Analyses started with 5% B (from t = 0 to t = 1 min), then increased to 95% (from t = 1 to t = 10 min), then maintained at 95% (from t = 10 to t = 15 min), and finally returned to […] in 1.0 min. The volume injected was 10 µL, and the flow rate 600 µL/min. UV detection was monitored at 254 nm, and spectra were collected in both the positive and negative modes within the scan range of m/z 100–1500.

[5] = as above; type: in vitro ADME, human; conditions: human, 10 µM compound; for Papp A→B at 2 h, 10 µM: apical to basolateral; for Papp B→A at 2 h, 10 µM: basolateral to apical; for efflux ratio at 2 h, 10 µM: read-out: Efflux ratio (ER) (Papp B-A/Papp A-B)
Protocol: as §2, §3, §4

[6] = known from the literature; cited from earlier work
[7] = known from literature; cited from earlier work
[8] = previously published; cited from earlier work
[9] = human liver microsomes; previously published; cited from earlier work

Cc1nc(Nc2ncc(C(=O)Nc3c(C)cccc3Cl)s2)cc(N2CCN(CCO)CC2)n1 [Dasatinib, dasatinib, reference compound]
Cell viability ([1]; 1 µM, vs untreated control): no significant signs of toxicity
viability at 10 µM ([2]; 10 µM): 90 to 100%
viability at 100 µM ([2]; 100 µM): 70 to 80%
Bioavailability [3]: 15.2%
Change of Papp A-B in presence of SCE vs Free [4]: slight increase
Change of Papp B-A in presence of SCE vs Free [4]: did not show relevant changes
Change of efflux ratio in presence of SCE vs Free [4]: reduced
Papp A→B at 2 h, 10 µM ([5]; Caco-2, +SCE [1 mg/mL]): 24.1 ± 1.2 nm/s
Papp B→A at 2 h, 10 µM ([5]; Caco-2, +SCE [1 mg/mL]): 311 ± 3.42 nm/s
efflux ratio at 2 h, 10 µM ([5]; Caco-2, +SCE [1 mg/mL]): 12.9 ± 0.786
Papp A→B at 2 h, 10 µM ([5]; Caco-2, Free): 20.2 ± 1.03 nm/s
Papp B→A at 2 h, 10 µM ([5]; Caco-2, Free): 369 ± 29.5 nm/s
efflux ratio at 2 h, 10 µM ([5]; Caco-2, Free): 18.2 ± 0.529

CC(C)NCC(O)COc1cccc2ccccc12 (stereo not drawn) [Propranolol, propranolol, reference compound]
Oral bioavailability / oral absorption (of an oral dose) [6]: around 90%
Cell viability ([1]; 1 µM, vs untreated control): no significant signs of toxicity
Cell viability ([1]; 100 µM): high percentages of viable cells
Papp [7]: higher than 10 × 10^−6 cm/s
Change of Papp A-B in presence of SCE vs Free [4]: doubled
Change of Papp B-A in presence of SCE vs Free [4]: did not show relevant changes
Change of efflux ratio in presence of SCE vs Free [4]: almost halved
Papp A→B at 2 h, 10 µM ([5]; Caco-2, +SCE [1 mg/mL]): 931 ± 38.4 nm/s
Papp B→A at 2 h, 10 µM ([5]; Caco-2, +SCE [1 mg/mL]): 372 ± 47.3 nm/s
efflux ratio at 2 h, 10 µM ([5]; Caco-2, +SCE [1 mg/mL]): 0.399 ± 0.034
Papp A→B at 2 h, 10 µM ([5]; Caco-2, Free): 413 ± 42.8 nm/s
Papp B→A at 2 h, 10 µM ([5]; Caco-2, Free): 336 ± 9.67 nm/s

Oc1ccc(Cl)c(Nc2ncnc3c2cnn3CC(Cl)c2ccccc2)c1 (stereo not drawn) [Cpd 3]
PAMPA Papp [8]: 4.3 (-) 10^−6 cm/s
Metabolic Stability [9]: 86.3%
Change of Papp A-B in presence of SCE vs Free [4]: ~10 fold
Change of Papp B-A in presence of SCE vs Free [4]: more interesting implementation
Change of efflux ratio in presence of SCE vs Free [4]: almost halved
Papp A→B at 2 h, 10 µM ([5]; Caco-2, +SCE [1 mg/mL]): 163 ± 5.37 nm/s
Papp B→A at 2 h, 10 µM ([5]; Caco-2, +SCE [1 mg/mL]): 325 ± 7.84 nm/s
efflux ratio at 2 h, 10 µM ([5]; Caco-2, +SCE [1 mg/mL]): 2 ± 0.114
Papp A→B at 2 h, 10 µM ([5]; Caco-2, Free): 16.8 ± 0.61 nm/s
Papp B→A at 2 h, 10 µM ([5]; Caco-2, Free): 47.4 ± 0.97 nm/s
efflux ratio at 2 h, 10 µM ([5]; Caco-2, Free): ~3

CC(Cn1ncc2c(Nc3cc(O)ccc3Cl)nc(NCCO)nc21)c1ccccc1 (stereo not drawn) [Cpd 6]
PAMPA Papp [8]: lower than 1 10^−6 cm/s
PAMPA membrane retention (MR %) [8]: 4.0%
Metabolic Stability [9]: 97.9%
Change of Papp A-B in presence of SCE vs Free [4]: about three and four times
Change of Papp B-A in presence of SCE vs Free [4]: more interesting implementation
Change of efflux ratio in presence of SCE vs Free [4]: almost halved
Papp A→B at 2 h, 10 µM ([5]; Caco-2, +SCE [1 mg/mL]): 149 ± 18.6 nm/s
Papp B→A at 2 h, 10 µM ([5]; Caco-2, +SCE [1 mg/mL]): 514.5 ± 1.18 nm/s
efflux ratio at 2 h, 10 µM ([5]; Caco-2, +SCE [1 mg/mL]): 3.48 ± 0.445
Papp A→B at 2 h, 10 µM ([5]; Caco-2, Free): 33.2 ± 0.41 nm/s
Papp B→A at 2 h, 10 µM ([5]; Caco-2, Free): 190 ± 21.5 nm/s
efflux ratio at 2 h, 10 µM ([5]; Caco-2, Free): 5.71 ± 0.578
